Data set [1] concerns the target T1, human neurokinin-3 receptors expressed in CHO cell lines (Homo sapiens, UniProt P29371).
T1 construct: expressed in transfected cells; host or cells: CHO cells
T1 sequence (P29371 1-465): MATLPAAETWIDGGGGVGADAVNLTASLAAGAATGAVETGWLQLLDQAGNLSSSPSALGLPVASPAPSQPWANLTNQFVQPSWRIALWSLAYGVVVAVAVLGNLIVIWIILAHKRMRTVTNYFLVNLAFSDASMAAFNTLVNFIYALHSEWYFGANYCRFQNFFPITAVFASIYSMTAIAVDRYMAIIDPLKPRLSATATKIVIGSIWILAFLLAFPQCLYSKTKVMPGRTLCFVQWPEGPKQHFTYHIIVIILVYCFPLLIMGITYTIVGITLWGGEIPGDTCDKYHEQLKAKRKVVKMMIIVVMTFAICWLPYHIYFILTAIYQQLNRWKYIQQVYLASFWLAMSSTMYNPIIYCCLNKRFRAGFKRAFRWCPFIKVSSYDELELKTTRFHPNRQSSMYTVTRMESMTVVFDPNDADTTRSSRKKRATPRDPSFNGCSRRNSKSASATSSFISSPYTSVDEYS
The data set is described as follows: Binding affinity in hNK-3-CHO. To be noted: human NK-3 receptors in CHO cell lines; radioligand [125I]-[Me-Phe7]-NKB. The procedure: The activity of the compounds of the present invention, as NK3 ligands, is determined by their ability to inhibit the binding of the radiolabelled NK3 ligands. [^125I]-[Me-Phe^7]-NKB or [^3H]-Senktide, to guinea-pig and human NK3 receptors (Renzetti et al. 1991, Neuropeptide, 18, 104-114; Buell et al, 1992, FEBS, 299(1), 90-95; Chung et al, 1994, Biochem. Biophys. Res. Commun., 198(3), 967-972).
The binding assays utilized allow the determination of the concentration of the individual compound required to reduce by 50% the [^125I]-[Me-Phe^7]-NKB and [^3H]-Senktide specific binding to NK3 receptor in equilibrium conditions (IC50).
Binding assays provide for each compound tested a mean IC50 value of 2-5 separate experiments performed in duplicate or triplicate. […] The NK3-antagonist activity of the compounds of the present invention is determined by their ability to inhibit senktide-induced contraction of the guinea-pig ileum (Maggi et al, 1990, Br. J. Pharmacol., 101, 996-1000) and rabbit isolated iris sphincter muscle (Hall et al., 1991, Eur. J. Pharmacol., 199, 9-14) and human NK3 receptors-mediated Ca^++ mobilization (Mochizuki et al. 1994, J. Biol. Chem., 269, 9651-9658). Guinea-pig and rabbit in-vitro functional assays provide for each compound tested a mean KB value of 3-8 separate experiments, where KB is the concentration of the individual compound required to produce a 2-fold rightward shift in the concentration-response curve of senktide. Human receptor functional assay allows the determination of the concentration of the individual compound required to reduce by 50% (IC50 values) the Ca^++ mobilization induced by the agonist NKB. In this assay, the compounds of the present invention behave as antagonists.

By pIC50 is commonly meant the negative decadic logarithm of the IC50, by convention in mol/L. Usually melting point stands for the temperature, or range, at which the solid turns liquid.

SMILES strings stand for the structures. pIC50: −log10 of the molar value. Where a name gives a salt, the structure may show the parent alone.

On to `CC[C@H](NC(=O)c1c(OCCCN2CCN(c3cccc(Cl)c3)CC2)c(-c2ccccc2)nc2ccccc12)c1ccccc1` [Example 34], for which the melting point lay in the range of 115 to 135 °C. In data set [1], this compound gave a pIC50 of 9.10.
`CC[C@H](NC(=O)c1c(OCCCN2C(=O)c3nccnc3C2=O)c(-c2ccccc2)nc2ccccc12)c1ccccc1` [Example 42] returned a melting point of 100 to 105 °C. Further, the negative-log IC50 (pIC50) in data set [1] is 8.57.
On to `CC[C@H](NC(=O)c1c(OCCCN2CCN(c3ccccc3)CC2)c(-c2ccccc2)nc2ccccc12)c1ccccc1` [Example 33], for which, in data set [1], the pIC50 is 9.15.
`CC[C@H](NC(=O)c1c(OCCO)c(-c2ccccc2)nc2ccccc12)c1ccccc1` [Example 2, (S)-N-(α-ethylbenzyl)-3-(2-hydroxyethoxy)-2-phenylquinoline-4-carboxamide] gave a pIC50 in data set [1] of 8.80.
Turning to `CC[C@H](NC(=O)c1c(CN2CCN(c3ccccc3)CC2)c(-c2ccccc2)nc2ccccc12)c1ccccc1` [Example 30], the melting point lay within 142 to 145 °C. In data set [1], the pIC50 is 8.96.
The compound `CC[C@H](NC(=O)c1c(OCCCN2CCN(C)CC2)c(-c2ccccc2)nc2ccccc12)c1ccccc1` [Example 31] showed a pIC50 in data set [1] of 8.48.
For the compound `CC[C@H](NC(=O)c1c(OCCCN2C(=O)c3ccccc3C2=O)c(-c2ccccc2)nc2ccccc12)c1ccccc1` [Example 9, (S)-N-(α-ethylbenzyl)-3-(3-phthalimidopropoxy)-2-phenylquinoline-4-carboxamide], the melting point lay in the range of 125 to 128 °C. In addition, the pIC50 in data set [1] is 8.49.
In turn, `CC[C@H](NC(=O)c1c(OCCN2Cc3ccccc3CC2=O)c(-c2ccccc2)nc2ccccc12)c1ccccc1` [Example 14, (S)-N-(α-ethylbenzyl)-3-[2-(1,4-dihydro-3(2H)-isoquinolinon-2-yl)ethoxy]-2-phenylquinoline-4-carboxamide] returned a melting point of 153 to 156 °C. This compound also gave a pIC50 in data set [1] of 8.77.
In turn, `CC[C@H](NC(=O)c1c(OCCCN2CCN(c3ncccn3)CC2)c(-c2ccccc2)nc2ccccc12)c1ccccc1` [Example 40] gave a pIC50 in data set [1] of 8.96.
`CC[C@H](NC(=O)c1c(OCCN2C(=O)Cc3ccccc3C2=O)c(-c2ccccc2)nc2ccccc12)c1ccccc1` [Example 6, (S)-N-(α-ethylbenzyl)-3-(2-homophthalimidoethoxy)-2-phenylquinoline-4-carboxamide] yielded a melting point of 159 to 161 °C. This compound had a pIC50 in data set [1] of 9.10.
In the same order, the values of `CC[C@H](NC(=O)c1c(OCCN2Cc3ccccc3C2)c(-c2ccccc2)nc2ccccc12)c1ccccc1.Cl.Cl` [Example 5, (S)-N-(α-ethylbenzyl)-3-[2-(2-isoindolinyl)ethoxy]-2-phenylquinoline-4-carboxamide Dihydrochloride] are 95 °C (dec.) and 8.92.
`CC[C@H](NC(=O)c1c(OCCN2C(=O)[C@@H](c3ccccc3)NC2(C)C)c(-c2ccccc2)nc2ccccc12)c1ccccc1` [Example 21, (S)-N-(α-ethylbenzyl)-3-{2-[2,2-dimethyl-5-(R)-phenyl-4-oxo-3-imidazolidinyl]ethoxy}-2-phenylquinoiine-4-carboxamide] returned a melting point of 147 to 150 °C. In addition, the pIC50 in data set [1] was 9.05.
In the same order, the values of `CC[C@H](NC(=O)c1c(OCCN2CCc3ccccc3C2=O)c(-c2ccccc2)nc2ccccc12)c1ccccc1` [Example 22, (S)-N-(α-ethylbenzyl)-3-[2-(3,4-dihydro-1(2H)-isoquinolinon-2-yl)ethoxy]-2-phenylquinoline-4-carboxamide] are 71 °C (dec.) and 8.89.
As to `CC[C@H](NC(=O)c1c(OCCCN)c(-c2ccccc2)nc2ccccc12)c1ccccc1` [Example 11, (S)-N-(α-ethylbenzyl)-3-(3-aminopropoxy)-2-phenylquinoline-4-carboxamide Hydrochloride], in data set [1], the pIC50 was 8.59.
Consider `CC[C@H](NC(=O)c1c(OCCCN2CCN(c3ccccc3OC)CC2)c(-c2ccccc2)nc2ccccc12)c1ccccc1.Cl.Cl` [Example 18, (S)-N-(α-ethylbenzyl)-3-{3-[4-(2-methoxyphenyl)piperazin-1-yl]propoxy}-2-phenylquinoline-4-carboxamide Dihydrochloride], for which the melting point fell in the range of 151 to 155 °C. This compound showed a pIC50 in data set [1] of 9.40.
In the case of `CC[C@H](NC(=O)c1c(OCCN2C(=O)CNC2(C)C)c(-c2ccccc2)nc2ccccc12)c1ccccc1` [Example 17, (S)-N-(α-ethylbenzyl)-3-[2-(2,2-dimethyl-4-oxo-3-imidazolidinyl)ethoxy]-2-phenylquinoline-4-carboxamide], the melting point lay in the range of 160 to 162 °C. This compound had a pIC50 in data set [1] of 8.47.
`CC[C@H](NC(=O)c1c(OCCN2C(=O)C=CC2=O)c(-c2ccccc2)nc2ccccc12)c1ccccc1` [Example 16, (S)-N-(α-ethylbenzyl)-3-(2-maleimidoethoxy)-2-phenylquinoline-4-carboxamide] came in with a melting point of 74 to 78 °C.
In the case of `CC[C@H](NC(=O)c1c(OCCCN2CCN(C)CC2)c(-c2ccccc2)nc2ccccc12)c1ccccc1` (as salt: HCl) [Example 31], the melting point was in the range of 160 to 170 °C.
Still for that read-out and setting: then `CC[C@H](NC(=O)c1c(OCCN2C(=O)CCC2=O)c(-c2ccccc2)nc2ccccc12)c1ccccc1` [Example 15, (S)-N-(α-ethylbenzyl)-3-(2-succinimidoethoxy)-2-phenylquinoline-4-carboxamide], with 80 °C (dec.).
Still for that read-out and setting: then `CC[C@H](NC(=O)c1c(OCCCN2CCN(c3ccccc3)CC2)c(-c2ccccc2)nc2ccccc12)c1ccccc1` (as salt: HCl) [Example 33], with 86 °C (dec.).
On the same count and under the same terms, then `CC[C@H](NC(=O)c1c(OCCCN2CCN(c3ncccn3)CC2)c(-c2ccccc2)nc2ccccc12)c1ccccc1` (as salt: HCl) [Example 40], with 140 °C (dec.).

(Values after patent US20020068827A1, “Quinoline-4-carboxamide derivatives, their preparation and their use as neurokinin 3 ( NK-3 ) - and neurokinin 2 ( NK-3 ) receptor antagonists” (SmithKline Beecham S.p.A., priority 1995, published 2002).)
